Reference: patent US20070208077A1, “Adiponectin Enhancer” (priority 2004, published 2007)
Several values for one entry are separate records, joined by “and”; a condition that tells them apart may be missing. Identical values can stand only once.

What was measured:
[1] = test system: 3T3-L1 cells; assay: Effect of inducing size reduction of adipocytes in pre-differentiated 3T3-L1 cell cultures; format: cell-based, mouse; conditions: sesamin 50 μM, 3T3-L1 cells pre-differentiated to adipocytes, 8 days of culturing, vs control
[2] = test system: adiponectin mRNA; assay: Cellular adiponectin mRNA level by quantitative RT-PCR in 3T3-L1 adipocytes; format: cell-based, mouse; conditions: sesamin 50 μM, 8 days of culturing
Protocol: (§1) Mouse-derived 3T3-L1 cells were treated for 42 hours in culturing solution containing insulin, dexamethasone and isobutylxanthine, for differentiation to adipocytes. The culture solution was removed and immediately combined with sesamin-free culturing solution (control) or culturing solution containing sesamin at a final concentration of 50 μM (sesamin), and after culturing for 48 hours, the culture solution was exchanged and culturing was continued for 6 days. The cell culturing was carried out in an incubator controlled to 5% CO2 gas-95% air at a temperature of 37° C. The cellular mRNA levels for adiponectin and TNFα were measured by quantitative RT-PCR using CYBR-Green (BMC Biotechnol. 3, 18, 2003).

[3] = test system: TNFα mRNA; assay: Cellular TNFα mRNA level by quantitative RT-PCR in 3T3-L1 adipocytes; format: cell-based, mouse; conditions: sesamin 50 μM, 8 days of culturing, vs control
Protocol: as §1

[4] = test system: adiponectin; assay: Adiponectin production by 3T3-L1 adipocytes, ELISA of culture solution; format: cell-based, mouse; conditions: sesamin 50 μM, vs control
Protocol: as §1, with “The” for “The cellular mRNA levels for”, “concentrations in the culture solutions” for “and TNFα”, “Enzyme-Linked ImmunoSorbent Assay (Mouse/Rat Adiponectin ELISA Kit, Otsuka Pharmaceutical).” for “quantitative RT-PCR using CYBR-Green (BMC Biotechnol. 3, 18, 2003).”

[5] = test system: Zucker fatty rats; assay: Plasma adiponectin concentration of Zucker fatty rats, ELISA; format: in vivo, rat; conditions: male Zucker fatty rats, 0.1% sesamin in AIN-93G feed for four weeks, after overnight starving; control feed 6.06 ± 0.48
Protocol: The rats were divided into two groups with five rats per group, with the first group being freely given AIN-93G (growth stage feed, product of Nihon Crea) as the control group and the second group being freely given feed comprising 0.1% sesamin added to AIN-93G, for a four week period. After four weeks, blood was sampled after overnight starving, and the plasma was separated. The plasma adiponectin concentrations were assayed using an Enzyme-Linked ImmunoSorbent Assay (Mouse/Rat Adiponectin ELISA Kit, product of Otsuka Pharmaceutical).

c1cc2c(cc1[C@H]1OC[C@H]3[C@@H]1CO[C@@H]3c1ccc3c(c1)OCO3)OCO2 [sesamin]
influence on adipocyte size [1]: numerous small adipocytes
adiponectin mRNA levels in the adipocytes, increase with respect to the control group [2]: 7 fold
TNFα mRNA levels in the adipocytes [3]: decreased
increase of adiponectin concentration in the cell cultured medium [4]: 1.6 fold
Plasma adiponectin [5]: 6.53 µg/mL and 6.53 ± 0.54 µg/mL
